For experiment [1], the system named is MDA-MB-453. Kind of experiment: drug sensitivity score (DSS), in combination with BLU9931 (DSS (weighted AUC score)); higher = more sensitive (stronger viability decrease); extreme values may be limits of the assay. To be noted: BLU9931 100 nM; 72 h. The gist of the method: (§1)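 Each 384-well plate held compounds from the FIMM Oncology set, predispensed in singlicate at five 10-fold dilutions spanning a 10,000-fold range, and each well then received 2000 MDA-MB-453 cells in medium with or without an FGFR4 inhibitor at 100 nM final. Plates stayed at 37 °C, 5% CO2 for 72 h, after which cellular ATP was measured with CellTiterGlo 2.0. Readings were converted per plate into percent viability against control wells, and the drug sensitivity score was taken as a weighted area under a four-parameter logistic fit.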

In experiment [2] the test system is MDA-MB-453. Kind of experiment: drug sensitivity score (DSS), single agent (DSS (weighted AUC score)); higher = more sensitive (stronger viability decrease); extreme values may be limits of the assay. Particulars: BLU9931 0 nM; 72 h. The gist of the method:
as §1

For `Cc1nc(-c2cn3c(n2)-c2ccc(-c4cnn(C(C)(C)C(N)=O)c4)cc2OCC3)n(C(C)C)n1` [Taselisib], the drug sensitivity score is 19.3 in the experiment with MDA-MB-453 [1] and 17.9 in the experiment on MDA-MB-453 [2].
In the same order, the values of `COc1cccc2c1c(O)c(C(=O)N(C)c1ccc(C(F)(F)F)cc1)c(=O)n2C` [Tasquinimod] are 1.4 and 2.9.
Consider `CCN(c1cc(-c2ccc(CN3CCOCC3)cc2)cc(C(=O)NCc2c(C)cc(C)[nH]c2=O)c1C)C1CCOCC1` [Tazemetostat], for which the results for the drug sensitivity score in the experiment with MDA-MB-453 [1] and in the experiment with MDA-MB-453 [2] were 0 and 2.1, respectively.
In the same order, the values of `CNC(=O)c1cc(COc2nnc(Nc3ccc(Cl)cc3)c3ccoc23)ccn1` [Telatinib] are 0 and 1.2.
Take `Cn1nnc2c(C(N)=O)ncn2c1=O` [Temozolomide]: the drug sensitivity score in the experiment on MDA-MB-453 [1] and in the experiment with MDA-MB-453 [2] was 0 in each case.
Consider `CO[C@H]1C[C@@H]2CC[C@@H](C)[C@@](O)(O2)C(=O)C(=O)N2CCCC[C@H]2C(=O)O[C@H]([C@H](C)C[C@@H]2CC[C@@H](OC(=O)C(C)(CO)CO)[C@H](OC)C2)CC(=O)[C@H](C)/C=C(\C)[C@@H](O)[C@@H](OC)C(=O)[C@H](C)C[C@H](C)/C=C/C=C/C=C/1C` [Temsirolimus], for which the drug sensitivity score was 14.8 in the experiment with MDA-MB-453 [1] and 10.3 in the experiment on MDA-MB-453 [2].
In the same order, the values of `COc1cc([C@@H]2c3cc4c(cc3[C@@H](O[C@@H]3O[C@@H]5CO[C@@H](c6cccs6)O[C@H]5[C@H](O)[C@H]3O)[C@H]3COC(=O)[C@H]23)OCO4)cc(OC)c1O` [Teniposide] are 0 and 0.
For `CN1CCC(COc2cnc(-c3cccc(Cn4nc(-c5cccc(C#N)c5)ccc4=O)c3)nc2)CC1` [Tepotinib], the drug sensitivity score in the experiment with MDA-MB-453 [1] and with MDA-MB-453 [2] was 0 throughout.
In the case of `COc1cc2c(Nc3ccc(Cl)c(Cl)c3F)ncnc2cc1OC[C@@H]1C[C@@H]2CN(C)C[C@@H]2C1` [Tesevatinib], the figures for the drug sensitivity score in the experiment on MDA-MB-453 [1] and with MDA-MB-453 [2] were 11.5 and 7.6, respectively.
In the same order, the values of `O=C1CCC(N2C(=O)c3ccccc3C2=O)C(=O)N1` (stereo not drawn) [Thalidomide] are 1 and 0.
Regarding `Nc1nc2[nH]cnc2c(=S)[nH]1` [Thioguanine], the figures for the drug sensitivity score with MDA-MB-453 [1] and in the experiment on MDA-MB-453 [2] were 5.9 and 10.4, respectively.
Regarding `O=c1sn(-c2cccc3ccccc23)c(=O)n1Cc1ccccc1` [Tideglusib], the drug sensitivity score with MDA-MB-453 [1] and in the experiment with MDA-MB-453 [2] was 0 each time.
With `Cn1cncc1[C@@](N)(c1ccc(Cl)cc1)c1ccc2c(c1)c(-c1cccc(Cl)c1)cc(=O)n2C` [Tipifarnib], the drug sensitivity score amounted to 4.1 in the experiment on MDA-MB-453 [1] and 8.3 in the experiment with MDA-MB-453 [2].
As for `CC#CC(=O)N1CC[C@@H](n2c(=O)n(-c3ccc(Oc4ccccc4)cc3)c3c(N)ncnc32)C1` [Tirabrutinib], the values for the drug sensitivity score in the experiment on MDA-MB-453 [1] and in the experiment with MDA-MB-453 [2] were 6.3 and 5.7, respectively.
In the same order, the values of `O=C1NC(=O)[C@@H](c2cn3c4c(cccc24)CCC3)[C@@H]1c1c[nH]c2ccccc12` [Tivantinib] are 2 and 4.4.
Regarding `COc1cc2nccc(Oc3ccc(NC(=O)Nc4cc(C)on4)c(Cl)c3)c2cc1OC` [Tivozanib], the values for the drug sensitivity score with MDA-MB-453 [1] and in the experiment with MDA-MB-453 [2] were 1.4 and 2.8, respectively.
In the same order, the values of `C[C@@H]1CCN(C(=O)CC#N)C[C@@H]1N(C)c1ncnc2[nH]ccc12` [Tofacitinib] are 0 and 0.
In the same order, the values of `CC[C@@]1(O)C(=O)OCc2c1cc1n(c2=O)Cc2cc3c(CN(C)C)c(O)ccc3nc2-1` [Topotecan] are 12.5 and 14.7.
For the molecule `CN(C)CCOc1ccc(/C(=C(/CCCl)c2ccccc2)c2ccccc2)cc1` [Toremifene], the drug sensitivity score in the experiment with MDA-MB-453 [1] came out at 4.1; in the experiment with MDA-MB-453 [2] it was 6.
In the same order, the values of `CC(C)C[C@@H](C(=O)N[C@H](C(=O)OC1CCCC1)c1ccccc1)[C@H](O)C(=O)NO` [Tosedostat] are 10.1 and 9.4.
In the same order, the values of `Cc1cc(Nc2cc(N3CCN(C)CC3)nc(Sc3ccc(NC(=O)C4CC4)cc3)n2)n[nH]1` [Tozasertib] are 0 and 2.5.
In the same order, the values of `CC(=O)Nc1cccc(-n2c(=O)n(C3CC3)c(=O)c3c(Nc4ccc(I)cc4F)n(C)c(=O)c(C)c32)c1` [Trametinib] are 2.7 and 5.7.
`CC1=C(/C=C/C(C)=C/C=C/C(C)=C/C(=O)O)C(C)(C)CCC1` [Tretinoin]: the drug sensitivity score in the experiment on MDA-MB-453 [1] and in the experiment with MDA-MB-453 [2] was 0 throughout.
As to `NC(=S)N/N=C/c1ncccc1N` [Triapine], the drug sensitivity score in the experiment on MDA-MB-453 [1] turned out to be 1.3; in the experiment on MDA-MB-453 [2] it was 0.1.
In the same order, the values of `O=c1[nH]c(=O)n([C@H]2C[C@H](O)[C@@H](CO)O2)cc1C(F)(F)F` [Trifluridine] are 1.2 and 2.6.
On to `O=C(CCCCCCC(=O)Nc1ccc([C@H]2O[C@@H](CSc3nc(-c4ccccc4)c(-c4ccccc4)o3)C[C@@H](c3ccc(CO)cc3)O2)cc1)NO` [Tubacin], for which the figures for the drug sensitivity score in the experiment on MDA-MB-453 [1] and in the experiment with MDA-MB-453 [2] were 1.7 and 2, respectively.
In the same order, the values of `CN1CCc2c(c3ccccc3n2Cc2ccc(C(=O)NO)cc2)C1` [Tubastatin A] are 2.1 and 4.1.
On to `Cc1cc(Nc2ncnc3ccc(NC4=NC(C)(C)CO4)cc23)ccc1Oc1ccn2ncnc2c1` [Tucatinib], for which the drug sensitivity score with MDA-MB-453 [1] amounted to 0.8; with MDA-MB-453 [2], 0.5.
`Nc1cc(F)ccc1NC(=O)c1ccc(CNC(=O)/C=C/c2cccnc2)cc1` [Tucidinostat]: the drug sensitivity score in the experiment with MDA-MB-453 [1] amounted to 10.1; with MDA-MB-453 [2], 9.8.
In the same order, the values of `CN[C@@H]1C[C@H]2O[C@@](C)([C@@H]1OC)n1c3ccccc3c3c4c(c5c6ccccc6n2c5c31)C(=O)N[C@H]4O` [UCN-01] are 16 and 18.2.
In the same order, the values of `COC(=O)c1ccc2c(c1)[nH]c1ncnc(NCCCN3CCCCC3)c12` [UM729] are 1.3 and 2.
For `COc1cc2c(NC3CCN(C(C)C)CC3)nc(C3CCCCC3)nc2cc1OCCCN1CCCC1` [UNC0638], the drug sensitivity score stood at 4.9 in the experiment with MDA-MB-453 [1] and 0 in the experiment on MDA-MB-453 [2].
In the same order, the values of `COc1cc2c(NC3CCN(C(C)C)CC3)nc(N3CCC(F)(F)CC3)nc2cc1OCCCN1CCCC1` [UNC0642] are 1.4 and 2.1.
In the same order, the values of `O=C(c1ccc(C(=O)N2CCC(N3CCCC3)CC2)c(Nc2ccccc2)c1)N1CCC(N2CCCC2)CC1` [UNC1215] are 0 and 0.
In the same order, the values of `CCCCNc1ncc(C(=O)NCc2ccc(-n3ccnc3)cc2)c(NC2CCC(O)CC2)n1` (stereo not drawn) [UNC2881] are 0 and 0.
Turning to `NC(=O)c1cccc(-c2cccc(OC(=O)NC3CCCCC3)c2)c1` [URB597], the drug sensitivity score in the experiment on MDA-MB-453 [1] and in the experiment with MDA-MB-453 [2] was 0 each time.
Turning to `CC(C)Nc1cc(-c2c[nH]c(C(=O)N[C@H](CO)c3cccc(Cl)c3)c2)c(Cl)cn1` [Ulixertinib], the drug sensitivity score was determined as 0.5 in the experiment on MDA-MB-453 [1] and 3.5 in the experiment with MDA-MB-453 [2].
In the same order, the values of `CC[C@@H]1CN(C(=O)NCC(F)(F)F)C[C@@H]1c1cnc2cnc3[nH]ccc3n12` [Upadacitinib] are 0 and 0.9.
In the same order, the values of `Cn1ncc(Cl)c1-c1cc(C(=O)N[C@H](CN)Cc2ccc(F)c(F)c2)oc1Cl` [Uprosertib] are 11.2 and 7.6.
In the same order, the values of `CS(=O)(=O)c1ccc(-c2cnc(N)c(C(=O)Nc3ccccc3)n2)cc1` [VE-821] are 4.7 and 2.
As to `O=C(O)CC1CC(c2ccccc2)=NO1` (stereo not drawn) [VGX-1027], the drug sensitivity score in the experiment on MDA-MB-453 [1] and with MDA-MB-453 [2] was 0 throughout.
For `C=CC(=O)N1CC/C(=C\c2ccc(F)c([N+](=O)[O-])c2)C(=O)/C(=C/c2ccc(F)c([N+](=O)[O-])c2)C1` [VLX1570], the drug sensitivity score was determined as 19.3 in the experiment on MDA-MB-453 [1] and 21.1 in the experiment on MDA-MB-453 [2].
As to `CNC(=O)c1ccccc1Nc1cc(Nc2ccc(N3CCOCC3)cc2OC)ncc1C(F)(F)F` [VS-4718], the drug sensitivity score in the experiment with MDA-MB-453 [1] amounted to 0; with MDA-MB-453 [2], 1.9.
In the same order, the values of `CCCC(CCC)C(=O)O` [Valproic acid] are 0.9 and 1.6.
In the same order, the values of `CCCCC(=O)OCC(=O)[C@]1(O)Cc2c(O)c3c(c(O)c2[C@@H](O[C@H]2C[C@H](NC(=O)C(F)(F)F)[C@H](O)[C@H](C)O2)C1)C(=O)c1c(OC)cccc1C3=O` [Valrubicin] are 8 and 8.6.
In the same order, the values of `COc1cc2/c(=N/c3ccc(Br)cc3F)nc[nH]c2cc1OCC1CCN(C)CC1` [Vandetanib] are 0 and 0.
Take `CCc1c(C(=O)C(N)=O)c2c(OCC(=O)O)cccc2n1Cc1ccccc1` [Varespladib]: the values for the drug sensitivity score with MDA-MB-453 [1] and in the experiment on MDA-MB-453 [2] were 0.8 and 0, respectively.
In the same order, the values of `C[C@@H]1COC(Nc2ccc3ncnc(Nc4ccc(OCc5nccs5)c(Cl)c4)c3c2)=N1` [Varlitinib] are 9.1 and 6.3.
For the molecule `Clc1ccc(Nc2nnc(Cc3ccncc3)c3ccccc23)cc1` [Vatalanib], the drug sensitivity score in the experiment on MDA-MB-453 [1] was 0.3; in the experiment with MDA-MB-453 [2], 0.8.

These data come from the supplement of paper PMC7224384.
